Assay results published in patent US8076487B2, “Pyridone derivative and herbicide” (Kumiai Chemical Industry Co., Ltd., priority 2006, dated 2011).

Columns and labels:
Type in all cases: in vivo
[1] = tested on: velvetleaf (Abutilon theophrasti medicus); experiment: Test Example 3: herbicidal effect by application to upland field (foliage treatment); details: 14th day after application; for herbicidal effect, Velvetleaf: foliage treatment, 1,000 g active ingredient per 1 hectare, greenhouse; for herbicidal effect (index), Velvetleaf: foliage treatment, plants grown two weeks, 1,000 g active ingredient per hectare
Procedure, shortened: (§1)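 Read-out is a visual herbicidal-effect grade on a standard scale, taken on the 14th day after a single foliar spray. The spray was wettable powder diluted in water, 1,000 g active ingredient/ha at 1,000 L/ha, applied to greenhouse plants two weeks after sowing.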

[2] = tested on: green foxtail (Setaria viridis (L.) P. Beauv.); experiment: as above; details: 14th day after application; for herbicidal effect, Green Foxtail: foliage treatment, 1,000 g active ingredient per 1 hectare, greenhouse; for herbicidal effect (index), Green Foxtail: foliage treatment, plants grown two weeks, 1,000 g active ingredient per hectare
Procedure, shortened: as §1

[3] = tested on: slender amaranth (Amaranthus viridis L.); experiment: as above; details: 14th day after application; for herbicidal effect, Slender Amaranth: foliage treatment, 1,000 g active ingredient per 1 hectare, greenhouse; for herbicidal effect (index), Slender Amaranth: foliage treatment, plants grown two weeks, 1,000 g active ingredient per hectare
Procedure, shortened: as §1

[4] = tested on: barnyardgrass (Echinochloa crus-galli (L.) P. Beauv. var. crus-galli); experiment: as above; details: 14th day after application; for herbicidal effect, Barnyardgrass: foliage treatment, 1,000 g active ingredient per 1 hectare, greenhouse; for herbicidal effect (index), Barnyardgrass: foliage treatment, plants grown two weeks, 1,000 g active ingredient per hectare
Procedure, shortened: as §1

[5] = tested on: velvetleaf (Abutilon theophrasti medicus); experiment: Test Example 2: herbicidal effect by soil application to upland field; details: soil surface spray, upland field soil, 1,000 g active ingredient per hectare, 21st day after application
Procedure, shortened: (§2)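 Dose was 1,000 g active ingredient per hectare, applied as a wettable powder diluted in water and sprayed evenly over the soil of sown, covered pots at a 1,000 L/ha equivalent. Effect was judged by a standard scale 21 d later under greenhouse conditions.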

[6] = tested on: green foxtail (Setaria viridis (L.) P. Beauv.); experiment: as above; details: soil surface spray, upland field soil, 1,000 g active ingredient per hectare, 21st day after application
Procedure, shortened: as §2

[7] = tested on: slender amaranth (Amaranthus viridis L.); experiment: as above; details: soil surface spray, upland field soil, 1,000 g active ingredient per hectare, 21st day after application
Procedure, shortened: as §2

[8] = tested on: barnyardgrass (Echinochloa crus-galli (L.) P. Beauv. var. crus-galli); experiment: as above; details: soil surface spray, upland field soil, 1,000 g active ingredient per hectare, 21st day after application
Procedure, shortened: as §2

[9] = tested on: Japanese bulrush (Scirpus juncoides Roxb.); experiment: Test Example 1: herbicidal effect by soil application to paddy field; details: paddy field soil application; active ingredient 1,000 g per 1 hectare; wettable powder added dropwise to water surface the day after sowing; examined on the 21st day after application
Procedure, shortened: (§3)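 Under greenhouse conditions, seeds sown on puddled paddy soil in 100 cm2 pots under 3 cm of standing water received the test compound; injury was assessed with a standard scoring scheme three weeks (day 21) after treatment.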

[10] = tested on: heartshape false pickerelweed (Monochoria vaginalis (Burm.f.) C.Presl); experiment: as above; details: paddy field soil application; active ingredient 1,000 g per 1 hectare; wettable powder added dropwise to water surface the day after sowing; examined on the 21st day after application
Procedure, shortened: as §3

[11] = tested on: early watergrass (Echinochloa oryzicola Vasing); experiment: as above; details: paddy field soil application; active ingredient 1,000 g per 1 hectare; wettable powder added dropwise to water surface the day after sowing; examined on the 21st day after application
Procedure, shortened: as §3

Row | SMILES | herbicidal effect, Velvetleaf [1] | herbicidal effect, Green Foxtail [2] | herbicidal effect, Slender Amaranth [3] | herbicidal effect, Barnyardgrass [4] | herbicidal effect (index), Velvetleaf [5] | herbicidal effect (index), Green Foxtail [6] | herbicidal effect (index), Slender Amaranth [7] | herbicidal effect (index), Barnyardgrass [8] | herbicidal effect, Scirpus juncoides Roxb. [9] | herbicidal effect, Monochoria vaginalis (Burm. f.) C. Presl [10] | herbicidal effect, Echinochloa oryzicola Vasing [11] | herbicidal effect (index), Velvetleaf [1] | herbicidal effect (index), Green Foxtail [2] | herbicidal effect (index), Slender Amaranth [3] | herbicidal effect (index), Barnyardgrass [4]
1 | C=CCn1c(C(F)(F)F)ccc(C(=O)C2=C(OC)CCCC2=O)c1=O [II-25] | 5 (90% or more of herbicidal effect and crop phytotoxicity) | 5 (90% or more of herbicidal effect and crop phytotoxicity) | 5 (90% or more of herbicidal effect and crop phytotoxicity) | 5 (90% or more of herbicidal effect and crop phytotoxicity) | 5 (90% or more of herbicidal effect and crop phytotoxicity) | 5 (90% or more of herbicidal effect and crop phytotoxicity) | 5 (90% or more of herbicidal effect and crop phytotoxicity) | 5 (90% or more of herbicidal effect and crop phytotoxicity) | 5 (90% or more of herbicidal effect and crop phytotoxicity) | 5 (90% or more of herbicidal effect and crop phytotoxicity) | 5 (90% or more of herbicidal effect and crop phytotoxicity) |  |  |  | 
2 | Cn1c(C(F)(F)F)ccc(C(=O)C2=C(O)C3CCC(C3)C2=O)c1=O (stereo not drawn) [III-1] | 5 (90% or more of herbicidal effect and crop phytotoxicity) | 5 (90% or more of herbicidal effect and crop phytotoxicity) | 5 (90% or more of herbicidal effect and crop phytotoxicity) | 4 (70 to less than 90% of herbicidal effect and crop phytotoxicity) | 5 (90% or more of herbicidal effect and crop phytotoxicity) | 5 (90% or more of herbicidal effect and crop phytotoxicity) | 5 (90% or more of herbicidal effect and crop phytotoxicity) | 5 (90% or more of herbicidal effect and crop phytotoxicity) | 5 (90% or more of herbicidal effect and crop phytotoxicity) | 5 (90% or more of herbicidal effect and crop phytotoxicity) | 5 (90% or more of herbicidal effect and crop phytotoxicity) |  |  |  | 
3 | C[S+]([O-])CCn1c(C(F)(F)F)ccc(C(=O)C2=C(O)CCCC2=O)c1=O (stereo not drawn) [I-66] |  |  |  |  | 5 (90% or more of herbicidal effect and crop phytotoxicity) | 5 (90% or more of herbicidal effect and crop phytotoxicity) | 5 (90% or more of herbicidal effect and crop phytotoxicity) | 5 (90% or more of herbicidal effect and crop phytotoxicity) | 5 (90% or more of herbicidal effect and crop phytotoxicity) | 5 (90% or more of herbicidal effect and crop phytotoxicity) | 5 (90% or more of herbicidal effect and crop phytotoxicity) | 5 (90% or more of herbicidal effect and crop phytotoxicity) | 5 (90% or more of herbicidal effect and crop phytotoxicity) | 5 (90% or more of herbicidal effect and crop phytotoxicity) | 5 (90% or more of herbicidal effect and crop phytotoxicity)
4 | COc1cc(-n2c(C(F)(F)F)ccc(C(=O)c3cnn(C)c3O)c2=O)ccc1Cl [IV-90] | 5 (90% or more of herbicidal effect and crop phytotoxicity) | 5 (90% or more of herbicidal effect and crop phytotoxicity) | 5 (90% or more of herbicidal effect and crop phytotoxicity) | 5 (90% or more of herbicidal effect and crop phytotoxicity) | 5 (90% or more of herbicidal effect and crop phytotoxicity) | 3 (50 to less than 70% of herbicidal effect and crop phytotoxicity) | 5 (90% or more of herbicidal effect and crop phytotoxicity) | 5 (90% or more of herbicidal effect and crop phytotoxicity) | 5 (90% or more of herbicidal effect and crop phytotoxicity) | 5 (90% or more of herbicidal effect and crop phytotoxicity) | 5 (90% or more of herbicidal effect and crop phytotoxicity) |  |  |  | 
5 | CCCS(=O)(=O)Oc1c(C(=O)c2ccc(C(F)(F)F)n(C)c2=O)cnn1C [IV-196] | 5 (90% or more of herbicidal effect and crop phytotoxicity) | 3 (50 to less than 70% of herbicidal effect and crop phytotoxicity) | 5 (90% or more of herbicidal effect and crop phytotoxicity) | 4 (70 to less than 90% of herbicidal effect and crop phytotoxicity) | 5 (90% or more of herbicidal effect and crop phytotoxicity) | 4 (70 to less than 90% of herbicidal effect and crop phytotoxicity) | 5 (90% or more of herbicidal effect and crop phytotoxicity) | 5 (90% or more of herbicidal effect and crop phytotoxicity) | 5 (90% or more of herbicidal effect and crop phytotoxicity) | 5 (90% or more of herbicidal effect and crop phytotoxicity) | 5 (90% or more of herbicidal effect and crop phytotoxicity) |  |  |  | 
6 | N#Cc1cccc(-n2c(C(F)(F)F)ccc(C(=O)C3=C(O)CCCC3=O)c2=O)c1 [I-94] |  |  |  |  | 5 (90% or more of herbicidal effect and crop phytotoxicity) | 5 (90% or more of herbicidal effect and crop phytotoxicity) | 5 (90% or more of herbicidal effect and crop phytotoxicity) | 5 (90% or more of herbicidal effect and crop phytotoxicity) | 5 (90% or more of herbicidal effect and crop phytotoxicity) | 5 (90% or more of herbicidal effect and crop phytotoxicity) | 5 (90% or more of herbicidal effect and crop phytotoxicity) | 5 (90% or more of herbicidal effect and crop phytotoxicity) | 5 (90% or more of herbicidal effect and crop phytotoxicity) | 5 (90% or more of herbicidal effect and crop phytotoxicity) | 5 (90% or more of herbicidal effect and crop phytotoxicity)
